Consider ten compounds from article PMC4538536, “In Silico-Based High-Throughput Screen for Discovery of Novel Combinations for Tuberculosis Treatment” (Antimicrobial Agents and Chemotherapy, 2015).

In brackets after ≈: the same amount, converted by molar mass. Like-named read-outs stand apart in the source and are kept apart here.

Series [1] has as its system M. tuberculosis H37Rv. The series is described as follows: MIC determination, resazurin-based microplate assay. The format is cell-based, Mycobacterium tuberculosis. The note with it: single drug. (Alamar Blue is a resazurin reagent that responds to reducing activity.)
For series [2], the system named is M. tuberculosis H37Rv. The series is described as follows: In vitro bactericidal-effect analysis (CFU enumeration of checkerboard wells). The format is cell-based, Mycobacterium tuberculosis. The note with it: single drug at its MIC (FIC of 1); positive = reduction in CFU. As for the experimental part: For determining the extent of the bactericidal effect, sample wells which remained blue in the resazurin microtiter assay (REMA) and whose ΣFICs were within the synergistic-to-additive range (<0.7 for doublets and <1.5 for triplets) were plated on Middlebrook 7H10 agar medium and incubated at 37°C for 21 to 28 days, following which bacterial colonies were enumerated to obtain the net reduction in CFU in comparison to the counts for the untreated controls at the start of drug testing, as well as to that achieved when M. tuberculosis was exposed to each drug alone.

The nature of series [3]: In vivo pharmacokinetics in infected mice (plasma, LC-MS/MS). Set-up: species or system BALB/c mice. The conditions noted are these: BALB/c, mouse, plasma, po, steady state, infected mice. As for the experimental part:
The drugs were formulated in 0.5% hydroxypropyl methyl cellulose (HPMC)–0.1% Tween 80 suspensions as 3- or 4-drug combinations. Formulations were prepared by weighing and adding each compound to the bottle, according to the design. Formulation vehicle was added, and the suspension was stirred overnight. Only uniform suspensions were used, while those that precipitated were abandoned. Formulations were prepared every week, and compound stability was estimated at the end of the week. Pharmacokinetics (PK) analysis was performed on infected mice on the 20th day of dosing. Blood samples were collected from each mouse at 0.5, 2, 4, 6, and 24 h after compound administration. Blood samples of about 30 μl were collected from mice in all groups by serial sampling via the saphenous vein into Microvette CB300 tubes (Starstedt, Germany) coated with EDTA, and plasma (10 μl) was separated following centrifugation. Plasma samples were stored at –20°C until analysis using liquid chromatography-tandem mass spectrometry (LC-MS/MS).
A 1-mg/ml stock solution of each compound was prepared in dimethyl sulfoxide (DMSO) for all of the analytes except PZA and LZD, for which the stock solution was 10 mg/ml in DMSO, and RIF, for which the stock solution was prepared in 50% acetonitrile in water. Three different sets of calibration standard (CS) combinations were prepared by 2-fold dilution of the stock solutions. CS set 1 contained analytes CLO, BDQ, PA824, PZA, and SQ109, CS set 2 contained analytes BTZ043, MXF, THI, EMB, and PZA, and CS set 3 contained LZD, INH, RIF, and PZA. A 16-point calibration curve was utilized for all analytes, and the standard curves ranged from 0.0005 to 20 μg/ml except for PZA and LZD, for which the standard curve range was 0.006 to 200 μg/ml. Plasma samples were precipitated by adding chilled acetonitrile (1:10, vol/vol) containing carbamazepine as an internal standard (10 ng/ml). Samples were vortexed and then centrifuged at 4,000 rpm for 30 min at 10°C. The resulting supernatant was mixed with the mobile phase (50% acetonitrile in water with 0.1% formic acid). Five microliters of the sample was injected on to a liquid chromatographic system (Acquity ultraperformance liquid chromatography [UPLC] system, Waters, Milford, MA) coupled to a triple-quadrupole mass spectrometer (Xevo TQ-S; Waters, Milford, MA). Samples were separated on an LC column (ACE 3 C18, 50 by 4.6 mm, 3 μm particle size; Advanced Chromatography Technologies, Aberdeen, Scotland) by isocratic elution with 40 parts of 20 mM ammonium formate containing 0.1% (vol/vol) formic acid and 60 parts of acetonitrile at a flow rate of 0.5 ml/min with a run time of 4 min. Samples were acquired in positive ion mode and detected by multiple reaction monitoring (MRM). The concentrations of the analyte were determined from a standard curve obtained by plotting known concentrations of the analyte against peak area ratios (analyte/internal standard peak response).
PK analyses of the plasma concentration-time relationships were performed with Phoenix software (version 6.2; Pharsight, USA). A noncompartmental analysis program, model 200, was used to calculate PK parameters. The maximum concentration of drug in plasma (Cmax), time to Cmax (Tmax), elimination half-life (t1/2), and area under the concentration-time curve (AUC) from time zero to infinity (AUC0–∞) were estimated. AUC was computed using the trapezoidal rule (linear up and log down), and the AUC0–∞ was considered only when the extrapolated AUC was not more than 20% of the original value. A minimum of three sample points in the terminal slope were used to calculate half-life.

Where [4] appears, read: 150 mg/kg, Group 6 quartet BTZ043 37.5/THI 800/SQ109 25/PZA 150 mg/kg oral, read-out: AUC0-24 in Quartet.
Where [5] appears, read: 150 mg/kg, Group 6 quartet BTZ043 37.5/THI 800/SQ109 25/PZA 150 mg/kg oral, read-out: Cmax in Quartet.
The mark [6] stands for this setting: 150 mg/kg, Ref. regimen quartet INH 30/RIF 10/EMB 100/PZA 150 mg/kg oral, read-out: AUC0-24 in Quartet.
[7] abbreviates: 150 mg/kg, Ref. regimen quartet INH 30/RIF 10/EMB 100/PZA 150 mg/kg oral, read-out: Cmax in Quartet.

In turn, `CC(=O)Nc1ccc(/C=N/NC(N)=S)cc1` [Thiacetazone] came in with a minimal inhibitory concentration (MIC) in series [1] (Mycobacterium tuberculosis) of 8.47 µM (≈ 2 µg/mL). Further, the “ΔLog10 CFU/ml at the MIC” value in series [2] came to 0.76 Log10 CFU/ml. Also, the AUC(0-t) in series [3] (25 mg/kg, Group 6 triplet BTZ043 37.5/THI 800/SQ109 25 mg/kg oral, read-out: AUC0-24 in Triplet) was determined as 87 ± 52.1 µg·h/mL; in series [3] (setting [4]), 68 ± 16 µg·h/mL. Moreover, the Cmax in series [3] (25 mg/kg, Group 6 triplet BTZ043 37.5/THI 800/SQ109 25 mg/kg oral, read-out: Cmax in Triplet) was 8500 ± 2800 ng/mL; in series [3] (setting [5]), 5100 ± 400 ng/mL.

In series [1], Capreomycin displayed an MIC of 5.91 µM. In addition, the “ΔLog10 CFU/ml at the MIC” value in series [2] was −0.11 Log10 CFU/ml.

For `NNC(=O)c1ccncc1` [Isoniazid], in series [1] (Mycobacterium tuberculosis), the minimal inhibitory concentration (MIC) was 0.22 µM (≈ 0.0302 µg/mL). Further, the “ΔLog10 CFU/ml at the MIC” value in series [2] turned out to be 1.02 Log10 CFU/ml. Moreover, the AUC(0-t) turned out to be 19.8 ± 4.7 µg·h/mL in series [3] (100 mg/kg, Ref. regimen triplet INH 30/RIF 10/EMB 100 mg/kg oral, read-out: AUC0-24 in Triplet) and 12 ± 3.4 µg·h/mL in series [3] (setting [6]). Moreover, the highest concentration (Cmax) was 10800 ± 2900 ng/mL in series [3] (100 mg/kg, Ref. regimen triplet INH 30/RIF 10/EMB 100 mg/kg oral, read-out: Cmax in Triplet) and 7000 ± 3200 ng/mL in series [3] (setting [7]).

In the case of `NC(=O)c1cnccn1` [Pyrazinamide], the AUC(0-t) was 115 ± 6.5 µg·h/mL in series [3] (150 mg/kg, Group 1 quartet CFZ 20/BDQ 25/PA824 50/PZA 150 mg/kg oral, read-out: AUC0-24 in Quartet); 148 ± 2.1 µg·h/mL in series [3] (150 mg/kg, Group 2 quartet SQ109 25/BDQ 25/PA824 50/PZA 150 mg/kg oral, read-out: AUC0-24 in Quartet); 156 ± 13.2 µg·h/mL in series [3] (150 mg/kg, Group 3 quartet BTZ043 37.5/SQ109 25/MXF 200/PZA 150 mg/kg oral, read-out: AUC0-24 in Quartet); 144 ± 29.5 µg·h/mL in series [3] (150 mg/kg, Group 5 quartet EMB 100/BDQ 25/SQ109 25/PZA 150 mg/kg oral, read-out: AUC0-24 in Quartet); 154 ± 23.8 µg·h/mL in series [3] (setting [4]); 144 ± 16.9 µg·h/mL in series [3] (150 mg/kg, Group 7 quartet PA824 50/BDQ 25/MXF 400/PZA 150 mg/kg oral, read-out: AUC0-24 in Quartet). For the same compound, the AUC(0-t) in series [3] (150 mg/kg, Group 8 quartet PA824 50/BDQ 25/EMB 100/PZA 150 mg/kg oral, read-out: AUC0-24 in Quartet) was found to be 127 ± 9 µg·h/mL; in series [3] (150 mg/kg, Group 9 quartet EMB 100/SQ109 25/LZD 130/PZA 150 mg/kg oral, read-out: AUC0-24 in Quartet), 119 ± 7 µg·h/mL; in series [3] (setting [6]), 161 ± 18.8 µg·h/mL. Also, the maximum concentration (Cmax) stood at 64000 ± 9800 ng/mL in series [3] (150 mg/kg, Group 1 quartet CFZ 20/BDQ 25/PA824 50/PZA 150 mg/kg oral, read-out: Cmax in Quartet); 64500 ± 3100 ng/mL in series [3] (150 mg/kg, Group 2 quartet SQ109 25/BDQ 25/PA824 50/PZA 150 mg/kg oral, read-out: Cmax in Quartet); 42000 ± 700 ng/mL in series [3] (150 mg/kg, Group 3 quartet BTZ043 37.5/SQ109 25/MXF 200/PZA 150 mg/kg oral, read-out: Cmax in Quartet); 67200 ± 2500 ng/mL in series [3] (150 mg/kg, Group 5 quartet EMB 100/BDQ 25/SQ109 25/PZA 150 mg/kg oral, read-out: Cmax in Quartet); 40200 ± 13300 ng/mL in series [3] (setting [5]); 33200 ± 2300 ng/mL in series [3] (150 mg/kg, Group 7 quartet PA824 50/BDQ 25/MXF 400/PZA 150 mg/kg oral, read-out: Cmax in Quartet). For the same compound, the Cmax in series [3] (150 mg/kg, Group 8 quartet PA824 50/BDQ 25/EMB 100/PZA 150 mg/kg oral, read-out: Cmax in Quartet) was 69000 ± 12700 ng/mL; in series [3] (150 mg/kg, Group 9 quartet EMB 100/SQ109 25/LZD 130/PZA 150 mg/kg oral, read-out: Cmax in Quartet), 39500 ± 4400 ng/mL; in series [3] (setting [7]), 69700 ± 9700 ng/mL.

Compound `C[C@@H](O)[C@H]1C(=O)N2C(C(=O)O)=C(S[C@@H]3CN[C@H](C(=O)N(C)C)C3)[C@H](C)[C@H]12` [Meropenem] came in with a minimal inhibitory concentration (MIC) in series [1] (Mycobacterium tuberculosis) of 8.15 µM (≈ 3.13 µg/mL). For the same compound, in series [2], the “ΔLog10 CFU/ml at the MIC” value came to 0.57 Log10 CFU/ml.

For `N[C@@H]1CON=C1O` [D-Cycloserine], the MIC in series [1] (Mycobacterium tuberculosis) was 30.6 µM (≈ 3.12 µg/mL). In series [2], the “ΔLog10 CFU/ml at the MIC” value is 0.87 Log10 CFU/ml.

In series [1] (Mycobacterium tuberculosis), `NCC[C@H](O)C(=O)N[C@@H]1C[C@H](N)[C@@H](O[C@H]2O[C@H](CN)[C@@H](O)[C@H](O)[C@H]2O)[C@H](O)[C@H]1O[C@H]1O[C@H](CO)[C@@H](O)[C@H](N)[C@H]1O` [Amikacin] gave a minimum inhibitory concentration (MIC) of 0.43 µM (≈ 0.252 µg/mL). For the same compound, the “ΔLog10 CFU/ml at the MIC” value in series [2] is −0.20 Log10 CFU/ml.

In series [1] (Mycobacterium tuberculosis), `CC[C@H]1OC(=O)[C@H](C)[C@@H](O[C@H]2C[C@@](C)(OC)[C@@H](O)[C@H](C)O2)[C@H](C)[C@@H](O[C@@H]2O[C@H](C)C[C@H](N(C)C)[C@H]2O)[C@](C)(OC)C[C@@H](C)C(=O)[C@H](C)[C@@H](O)[C@]1(C)O` [Clarithromycin] had an MIC of 9.63 µM (≈ 7.2 µg/mL). Further, in series [2], the “ΔLog10 CFU/ml at the MIC” value amounted to 0.75 Log10 CFU/ml.

`[H]/N=C(/N)N[C@H]1[C@H](O)[C@@H](O)[C@H](O[C@@H]2O[C@@H](C)[C@](O)(C=O)[C@H]2O[C@@H]2O[C@@H](CO)[C@H](O)[C@@H](O)[C@@H]2NC)[C@@H](N/C(N)=N\[H])[C@@H]1O` [Streptomycin] returned an MIC in series [1] (Mycobacterium tuberculosis) of 0.68 µM (≈ 0.395 µg/mL). For the same compound, the “ΔLog10 CFU/ml at the MIC” value in series [2] turned out to be 0.36 Log10 CFU/ml.

Take `NC[C@H]1O[C@H](O[C@H]2[C@H](O)[C@@H](O[C@H]3O[C@H](CO)[C@@H](O)[C@H](N)[C@H]3O)[C@H](N)C[C@@H]2N)[C@H](O)[C@@H](O)[C@@H]1O` [Kanamycin]: the MIC in series [1] turned out to be 1.61 µM (≈ 0.78 µg/mL). Moreover, the “ΔLog10 CFU/ml at the MIC” value in series [2] is given as 0.44 Log10 CFU/ml.

Usually MIC stands for the smallest concentration in the dilution series that meets the test's criterion for growth inhibition. A low value points to inhibition by little substance. As a reminder, the Cmax is the maximum level reached in the sampled fluid or tissue.
